Data on four compounds can be found in patent EP3046573B1, “AMYLIN ANALOGUES” (Zealand Pharma A/S, priority 2013, dated 2015).

A short description of this series: Assessment of chemical stability: normalized purity by RP-HPLC after incubation at 40 °C. The format is physicochemical. To be noted: normalized purity (T=0 set to 100), 0.2 mg/ml; for Chem. stability; 7 days, 40°C pH 4: pH 4, 7 days; for Chem. stability; 7 days, 40°C pH 7.5: pH 7.5, 7 days; for Chem. stability; 7 days, 40°C pH 9: pH 9, 7 days. Here is the method: Samples of each test peptide were dissolved in MilliQ™ water, and the pH of the solution was adjusted to pH 4, pH 7.5 or pH 9, respectively, using either HCI or NaOH. The final peptide concentration was 0.2 mg/ml. Samples were placed in glass vials and incubated at 40 °C. The samples were analyzed by RP-HPLC on a C8 column with gradient elution using an ammonium formate/water eluent system, or on a C18 column with gradient elution using a trifluoroacetic acid/water eluent system. The area-percentage (area-%) of the main peak after incubation time T = t (relative to time T = 0) was determined by UV spectroscopy at 220 nm.
The purity was first determined as follows: Purity(area−%) = (area of main peak/total area of all peaks) × 100. [formula]
The purity was then normalized between time points by setting purity at time 0 (T=0) to 100 for each pH value for a given peptide, as follows: Normalised area−%at time t(T = t) = [area−%(T = t)/area−%(T = 0)] × 100. [formula]
The normalized purity values in Table 2 were determined after 7 days of incubation. Table 2. EC50, chemical stability and fibrillation data for compounds of the invention

Numbered stars: 1 amine (or outer) side, 2 acyl side, 3 side chain; on linkers, the order of the positions; unused ones are H or OH. Bridge positions count the residues as written; N and C are the ends. Square brackets hold non-standard residues; d marks the D form. Peptide text beside a SMILES is read from it. * marks the point of attachment. C20 diacid = O=C(O)CCCCCCCCCCCCCCCCCCC(=O)*; Pro(4R-NH2) = N[C@H]1CN[C@H](C(=O)O)C1; γGlu = O=C(O)[C@H](CCC(=O)[*:2])N[*:1]; Hyp = O=C(O)[C@@H]1C[C@@H](O)CN1; NMeI = CC[C@H](C)[C@H](NC)C(=O)O; Sar = CNCC(=O)O

Regarding `CC[C@H](C)[C@@H](C(=O)N[C@@H](CC(C)C)C(=O)N[C@@H](CO)C(=O)N[C@@H](CO)C(=O)N[C@H](C(=O)N[C@@H](CC(N)=O)C(=O)N[C@H](C(=O)NCC(=O)N[C@@H](CO)C(=O)N[C@@H](CC(N)=O)C(=O)N[C@H](C(=O)N1CCC[C@H]1C(N)=O)[C@@H](C)O)C(C)C)[C@@H](C)O)N(C)C(=O)[C@H](C)NC(=O)CN(C)C(=O)[C@H](Cc1ccccc1)NC(=O)[C@H](CC(N)=O)NC(=O)[C@H](CC(N)=O)NC(=O)[C@H](CO)NC(=O)[C@H](CO)NC(=O)[C@H](CCCNC(=N)N)NC(=O)[C@H](Cc1c[nH]cn1)NC(=O)[C@H](CC(C)C)NC(=O)[C@H](Cc1ccccc1)NC(=O)[C@H](CCC(=O)O)NC(=O)[C@H](C)NC(=O)[C@H](CC(C)C)NC(=O)[C@H](CCCNC(=N)N)NC(=O)[C@H](CCC(N)=O)NC(=O)[C@@H](NC(=O)[C@H](C)NC(=O)[C@@H]1CSSC[C@H](NC(=O)[C@H](CCCCN)NC(=O)[C@H](CCCCN)NC(=O)CC[C@H](NC(=O)CCCCCCCCCCCCCCCCCCC(=O)O)C(=O)O)C(=O)N[C@@H](CC(N)=O)C(=O)N[C@@H]([C@@H](C)O)C(=O)N[C@@H](C)C(=O)N[C@@H]([C@@H](C)O)C(=O)N1)[C@@H](C)O` [Compound 87, [19CD]-isoGlu-KKC()NTATC()ATQRLAEFLHRSSNNF-Gly(Me)-A-Ile(Me)-LSSTNVGSNTP-NH2] ({C20 diacid-γGlu}-KKCNTATCATQRLAEFLHRSSNNF[Sar]A[NMeI]LSSTNVGSNTP-NH2; disulfide 3-8), the “Chem. stability; 7 days, 40°C pH 4” value amounted to 63 area-%; the “Chem. stability; 7 days, 40°C pH 7.5” value amounted to 39 area-%; the “Chem. stability; 7 days, 40°C pH 9” value amounted to 40 area-%.
For `CC[C@H](C)[C@@H](C(=O)N[C@@H](CC(C)C)C(=O)N[C@@H](CO)C(=O)N[C@@H](CO)C(=O)N[C@H](C(=O)N[C@@H](CC(N)=O)C(=O)N[C@H](C(=O)NCC(=O)N[C@@H](CO)C(=O)N[C@@H](CC(N)=O)C(=O)N[C@H](C(=O)N1C[C@H](O)C[C@H]1C(N)=O)[C@@H](C)O)C(C)C)[C@@H](C)O)N(C)C(=O)[C@H](C)NC(=O)CN(C)C(=O)[C@H](Cc1ccccc1)NC(=O)[C@H](CC(N)=O)NC(=O)[C@H](CC(N)=O)NC(=O)[C@H](CO)NC(=O)[C@H](CO)NC(=O)[C@H](CCCNC(=N)N)NC(=O)[C@H](Cc1c[nH]cn1)NC(=O)[C@H](CC(C)C)NC(=O)[C@H](Cc1ccccc1)NC(=O)[C@H](CCC(=O)O)NC(=O)[C@H](C)NC(=O)[C@H](CC(C)C)NC(=O)[C@H](CCCNC(=N)N)NC(=O)[C@H](CCC(N)=O)NC(=O)[C@@H](NC(=O)[C@H](C)NC(=O)[C@@H]1CSSC[C@H](NC(=O)[C@H](CCCNC(=N)N)NC(=O)CC[C@H](NC(=O)CCCCCCCCCCCCCCCCCCC(=O)O)C(=O)O)C(=O)N[C@@H](CC(N)=O)C(=O)N[C@@H]([C@@H](C)O)C(=O)N[C@@H](C)C(=O)N[C@@H]([C@@H](C)O)C(=O)N1)[C@@H](C)O` [Compound 105, [19CD]-isoGlu-RC()NTATC()ATQRLAEFLHRSSNNF-Gly(Me)-A-Ile(Me)-LSSTNVGSNT-Hyp-NH2] ({C20 diacid-γGlu}-RCNTATCATQRLAEFLHRSSNNF[Sar]A[NMeI]LSSTNVGSNT[Hyp]-NH2; disulfide 2-7), the “Chem. stability; 7 days, 40°C pH 4” value is reported as 57 area-%; the “Chem. stability; 7 days, 40°C pH 7.5” value turned out to be 57 area-%; the “Chem. stability; 7 days, 40°C pH 9” value came to 42 area-%.
With `CC[C@H](C)[C@@H](C(=O)N[C@@H](CC(C)C)C(=O)N[C@@H](CO)C(=O)N[C@@H](CO)C(=O)N[C@H](C(=O)N[C@@H](CC(N)=O)C(=O)N[C@H](C(=O)NCC(=O)N[C@@H](CO)C(=O)N[C@@H](CC(N)=O)C(=O)N[C@H](C(=O)N1C[C@H](N)C[C@H]1C(N)=O)[C@@H](C)O)C(C)C)[C@@H](C)O)N(C)C(=O)[C@H](C)NC(=O)CN(C)C(=O)[C@H](Cc1ccccc1)NC(=O)[C@H](CC(N)=O)NC(=O)[C@H](CC(N)=O)NC(=O)[C@H](CO)NC(=O)[C@H](CO)NC(=O)[C@H](CCCNC(=N)N)NC(=O)[C@H](Cc1c[nH]cn1)NC(=O)[C@H](CC(C)C)NC(=O)[C@H](Cc1ccccc1)NC(=O)[C@H](CCC(=O)O)NC(=O)[C@H](C)NC(=O)[C@H](CC(C)C)NC(=O)[C@H](CCCNC(=N)N)NC(=O)[C@H](CCC(N)=O)NC(=O)[C@@H](NC(=O)[C@H](C)NC(=O)[C@@H]1CSSC[C@H](NC(=O)[C@H](CCCNC(=N)N)NC(=O)CC[C@H](NC(=O)CCCCCCCCCCCCCCCCCCC(=O)O)C(=O)O)C(=O)N[C@@H](CC(N)=O)C(=O)N[C@@H]([C@@H](C)O)C(=O)N[C@@H](C)C(=O)N[C@@H]([C@@H](C)O)C(=O)N1)[C@@H](C)O` [Compound 110, [19CD]-isoGlu-RC()NTATC()ATQRLAEFLHRSSNNF-Gly(Me)-A-Ile(Me)-LSSTNVGSNT-Apr-NH2] ({C20 diacid-γGlu}-RCNTATCATQRLAEFLHRSSNNF[Sar]A[NMeI]LSSTNVGSNT[Pro(4R-NH2)]-NH2; disulfide 2-7), the “Chem. stability; 7 days, 40°C pH 4” value was determined as 74 area-%; the “Chem. stability; 7 days, 40°C pH 7.5” value is reported as 66 area-%; the “Chem. stability; 7 days, 40°C pH 9” value was determined as 59 area-%.
As for `CC[C@H](C)[C@@H](C(=O)N[C@@H](CC(C)C)C(=O)N[C@@H](CO)C(=O)N[C@@H](CO)C(=O)N[C@H](C(=O)N[C@@H](CC(N)=O)C(=O)N[C@H](C(=O)NCC(=O)N[C@@H](CO)C(=O)N[C@@H](CC(N)=O)C(=O)N[C@H](C(=O)N1CCC[C@H]1C(N)=O)[C@@H](C)O)C(C)C)[C@@H](C)O)N(C)C(=O)[C@H](C)NC(=O)CN(C)C(=O)[C@H](Cc1ccccc1)NC(=O)[C@H](CC(N)=O)NC(=O)[C@H](CC(N)=O)NC(=O)[C@H](CO)NC(=O)[C@H](CO)NC(=O)[C@H](CCCNC(=N)N)NC(=O)[C@H](Cc1c[nH]cn1)NC(=O)[C@H](CC(C)C)NC(=O)[C@H](Cc1ccccc1)NC(=O)[C@H](CCC(=O)O)NC(=O)[C@H](C)NC(=O)[C@H](CC(C)C)NC(=O)[C@H](CCCNC(=N)N)NC(=O)[C@H](CCC(N)=O)NC(=O)[C@@H](NC(=O)[C@H](C)NC(=O)[C@@H]1CSSC[C@H](NC(=O)[C@H](Cc2c[nH]c3ccccc23)NC(=O)[C@H](CCCNC(=N)N)NC(=O)CC[C@H](NC(=O)CCCCCCCCCCCCCCCCCCC(=O)O)C(=O)O)C(=O)N[C@@H](CC(N)=O)C(=O)N[C@@H]([C@@H](C)O)C(=O)N[C@@H](C)C(=O)N[C@@H]([C@@H](C)O)C(=O)N1)[C@@H](C)O` [Compound 174, [19CD]-isoGlu-RWC()NTATC()ATQRLAEFLHRSSNNF-Gly(Me)-A-Ile(Me)-LSSTNVGSNTP-NH2] ({C20 diacid-γGlu}-RWCNTATCATQRLAEFLHRSSNNF[Sar]A[NMeI]LSSTNVGSNTP-NH2; disulfide 3-8), the “Chem. stability; 7 days, 40°C pH 4” value stood at 92 area-%; the “Chem. stability; 7 days, 40°C pH 7.5” value is recorded as 31 area-%; the “Chem. stability; 7 days, 40°C pH 9” value was determined as 39 area-%.
